# From ChEMBL document CHEMBL1201862, “PubChem BioAssay data set” (2004)
#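 The compound was tested at five concentrations on cells cultured in 96-well plates, with a 48-hour exposure period. GI50: concentration for 50% inhibition of growth.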 The source made the active and inactive calls. No stated cut-off is given here; in the data, active = GI50 up to about 1.1 µM and inactive = higher.
# Columns and labels:
# Assay in all cases: NCI-60 cell line screen, 48 h
# SK-MEL-2 = tested on: SK-MEL-2
# U-251 = tested on: U-251
# CAKI-1 = tested on: CAKI-1
# NCI-H226 = tested on: NCI-H226
# UACC-62 = tested on: UACC-62
# SF-268 = tested on: SF-268
# SF-295 = tested on: SF-295
# A549 = tested on: A549
# SF-539 = tested on: SF-539
# DU-145 = tested on: DU-145
# HOP-62 = tested on: HOP-62
# HT-29 = tested on: HT-29
# OVCAR-5 = tested on: OVCAR-5
# A498 = tested on: A498
# HOP-92 = tested on: HOP-92
# SNB-19 = tested on: SNB-19
# HL-60 = tested on: HL-60
SMILES,GI50 (SK-MEL-2),GI50 (U-251),GI50 (CAKI-1),GI50 (NCI-H226),GI50 (UACC-62),GI50 (SF-268),GI50 (SF-295),GI50 (A549),GI50 (SF-539),GI50 (DU-145),GI50 (HOP-62),GI50 (HT-29),GI50 (OVCAR-5),GI50 (A498),GI50 (HOP-92),GI50 (SNB-19),GI50 (HL-60)
Oc1ccc(Cl)cc1C1=NC(/N=C\c2ccccc2)=NC(c2ccccc2)C1 (stereo not given),> 100 µM (inactive),30.1 µM (inactive),4.3 µM (inactive),37.8 µM (inactive),> 100 µM (inactive),7.19 µM (inactive),> 100 µM (inactive),21.7 µM (inactive),22.8 µM (inactive),> 100 µM (inactive),25.7 µM (inactive),24.8 µM (inactive),> 100 µM (inactive),73.6 µM (inactive),> 100 µM (inactive),,
NCCCN(CCCCN(CCCN)Cc1ccc2ccccc2c1)Cc1ccc2ccccc2c1,,1.8 µM (inactive),1.65 µM (inactive),1.8 µM (inactive),2.08 µM (inactive),1.29 µM (inactive),2.12 µM (inactive),1.68 µM (inactive),1.8 µM (inactive),2.22 µM (inactive),,1.7 µM (inactive),1.84 µM (inactive),2.1 µM (inactive),2.83 µM (inactive),1.53 µM (inactive),3.76 µM (inactive)
O=C1c2ccccc2C(=O)c2sc(Nc3ccccc3C(F)(F)F)nc21,11.6 µM (inactive),10.6 µM (inactive),8.77 µM (inactive),,11.6 µM (inactive),11 µM (inactive),15.6 µM (inactive),21.2 µM (inactive),19.9 µM (inactive),16.9 µM (inactive),14 µM (inactive),,22.4 µM (inactive),15.3 µM (inactive),10.6 µM (inactive),21.5 µM (inactive),3.74 µM (inactive)
Cc1cc(-c2nc3c(F)cccc3s2)ccc1N,> 100 µM (inactive),69.2 µM (inactive),50.4 µM (inactive),,21 µM (inactive),39.9 µM (inactive),41.2 µM (inactive),49.3 µM (inactive),,52.4 µM (inactive),62.5 µM (inactive),44.8 µM (inactive),,8.2 µM (inactive),> 100 µM (inactive),,43.8 µM (inactive)
C=CCOC1OC(CS(=O)(=O)O)C(O)C(O)C1O (stereo not given),> 100 µM (inactive),> 100 µM (inactive),> 100 µM (inactive),> 100 µM (inactive),> 100 µM (inactive),,> 100 µM (inactive),,,> 100 µM (inactive),> 100 µM (inactive),> 100 µM (inactive),> 100 µM (inactive),> 100 µM (inactive),> 100 µM (inactive),> 100 µM (inactive),> 100 µM (inactive)
CCOC(=O)N1c2ccccc2N(C(=O)OCC)C1CC(=O)/C=C/c1ccccc1,1.94 µM (inactive),3.46 µM (inactive),1.44 µM (inactive),2.81 µM (inactive),2.7 µM (inactive),2.37 µM (inactive),4.05 µM (inactive),3.36 µM (inactive),,2.69 µM (inactive),3.99 µM (inactive),2.94 µM (inactive),2.65 µM (inactive),3.37 µM (inactive),1.97 µM (inactive),3.28 µM (inactive),2.61 µM (inactive)
COC1(OC)c2no[n+]([O-])c2CCC1O (stereo not given),> 100 µM (inactive),,> 100 µM (inactive),> 100 µM (inactive),> 100 µM (inactive),> 100 µM (inactive),> 100 µM (inactive),> 100 µM (inactive),> 100 µM (inactive),> 100 µM (inactive),> 100 µM (inactive),> 100 µM (inactive),> 100 µM (inactive),> 100 µM (inactive),0.0255 µM (active),> 100 µM (inactive),
COC(=O)C1=C(O)CCCC(C2CCCCC(=O)C2C(=O)OC)=C1 (stereo not given),> 100 µM (inactive),29 µM (inactive),31.1 µM (inactive),27.9 µM (inactive),19.4 µM (inactive),,48 µM (inactive),44.3 µM (inactive),24.5 µM (inactive),29.9 µM (inactive),,> 100 µM (inactive),> 100 µM (inactive),18.4 µM (inactive),28.5 µM (inactive),42.1 µM (inactive),
O=C(NC(=S)Nc1ccc(Br)cc1)c1ccc2c(c1)Sc1ccccc1O2,> 100 µM (inactive),37 µM (inactive),,> 100 µM (inactive),68.2 µM (inactive),48.3 µM (inactive),54.5 µM (inactive),> 100 µM (inactive),> 100 µM (inactive),> 100 µM (inactive),79.8 µM (inactive),> 100 µM (inactive),> 100 µM (inactive),27.4 µM (inactive),22.5 µM (inactive),39.3 µM (inactive),> 100 µM (inactive)
O=C1/C(=C/c2cccc([N+](=O)[O-])c2)N=C(c2ccccc2)N1c1nc2c(Cl)cc(Cl)cc2s1,21.4 µM (inactive),17.8 µM (inactive),40.7 µM (inactive),,29.2 µM (inactive),42.6 µM (inactive),33.6 µM (inactive),21.1 µM (inactive),22.8 µM (inactive),27 µM (inactive),19.7 µM (inactive),19.1 µM (inactive),26.7 µM (inactive),18.7 µM (inactive),24.6 µM (inactive),23.1 µM (inactive),21.7 µM (inactive)
CCCCCCCC(CC(=O)NC(CO)C(=O)NC(CO)CC(C)C)OC(=O)CC(CCCCCCC)OC(=O)CC(CCCCCCC)OC1OC(C)C(O)C(OC2OC(C)C(OC(C)=O)C(O)C2O)C1O (stereo not given),,4.41 µM (inactive),15.2 µM (inactive),16.6 µM (inactive),6.34 µM (inactive),8.28 µM (inactive),12 µM (inactive),11.2 µM (inactive),11 µM (inactive),11.8 µM (inactive),17.1 µM (inactive),3.41 µM (inactive),10.1 µM (inactive),11.3 µM (inactive),8.91 µM (inactive),5.27 µM (inactive),2.92 µM (inactive)
COc1ccc(/C=N/NS(=O)(=O)c2ccc(/C=C3\NC(=O)N(C)C3=O)cc2)cc1,> 100 µM (inactive),> 100 µM (inactive),> 100 µM (inactive),> 100 µM (inactive),98.9 µM (inactive),37.8 µM (inactive),55 µM (inactive),> 100 µM (inactive),,> 100 µM (inactive),40.2 µM (inactive),> 100 µM (inactive),> 100 µM (inactive),70.6 µM (inactive),58.7 µM (inactive),80.9 µM (inactive),67 µM (inactive)
CC1=NN(c2cccc(Cl)c2)C2(SCC(=O)N2c2nc3ccccc3s2)C1=CC=Cc1ccccc1 (stereo not given),21.7 µM (inactive),17.8 µM (inactive),31.1 µM (inactive),53 µM (inactive),,31.6 µM (inactive),35.2 µM (inactive),,44.1 µM (inactive),21.3 µM (inactive),36.1 µM (inactive),30.1 µM (inactive),51.6 µM (inactive),20.7 µM (inactive),17.7 µM (inactive),,1.47 µM (inactive)
